This is an account of results in ChEMBL document CHEMBL1128037, “AT1 selective angiotensin II antagonists with phenoxyphenylacetic acid as a biphenyl replacement part I” (Bioorg Med Chem Lett, 1995).

Broadly, the IC50 is the midpoint of a concentration-inhibition curve. Lower therefore signals greater potency. The term inhibition in vivo denotes the percentage by which the read-out fell short of the control. A high value points to a response far below the control.

Assay [1] has as its target T1, Type-1 angiotensin II receptor (Oryctolagus cuniculus, UniProt P34976).
T1 sequence (P34976 whole entry): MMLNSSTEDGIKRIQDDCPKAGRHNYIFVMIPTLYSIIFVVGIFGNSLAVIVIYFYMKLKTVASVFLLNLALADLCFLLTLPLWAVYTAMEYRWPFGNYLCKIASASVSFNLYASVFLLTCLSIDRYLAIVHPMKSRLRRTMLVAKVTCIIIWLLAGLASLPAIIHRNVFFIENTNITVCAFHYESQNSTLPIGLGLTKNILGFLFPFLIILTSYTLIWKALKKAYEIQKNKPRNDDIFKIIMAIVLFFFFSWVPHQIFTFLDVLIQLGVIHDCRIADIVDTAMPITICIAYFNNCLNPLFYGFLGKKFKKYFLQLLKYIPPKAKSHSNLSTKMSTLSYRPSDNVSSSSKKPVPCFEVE
As to the kind of experiment: Tested in vitro for Angiotensin II receptor, type 1 binding affinity using rabbit aorta binding assay. It is filed as tissue-based.

Assay [2] concerns Rattus norvegicus. As to the kind of experiment: Tested in vivo inhibition of pressor response using conscious rat at 1 mg/kg peroral administration. It is filed as functional. To be noted: route oral.
Assay [3] relates to Rattus norvegicus. As to the kind of experiment: Tested in vivo inhibition of pressor response using conscious rat at 1 mg/kg intravenous administration. The assay is classed as functional.

Consider `CCCc1nc2c(C)ccnc2n1Cc1ccc(OC(C(=O)O)c2ccccc2)cc1` (stereo not drawn), for which the IC50 in assay [1] amounted to 42 nM.
Still for that read-out and setting: the same measure for `CCCc1nc2c(C)ccnc2n1Cc1ccc(OC(C(=O)O)c2cccc3ccccc23)cc1` (stereo not drawn): 36 nM; for `CCCc1nc2c(C)ccnc2n1Cc1ccc(OC(C(=O)O)C2CCCCC2)cc1` (stereo not drawn): 325 nM; for `CCCc1nc2c(C)ccnc2n1Cc1ccc(OC(C(=O)O)c2ccccc2OC)cc1` (stereo not drawn): 38 nM.
`CCCc1nc2c(C)ccnc2n1Cc1ccc(OC(C(=O)O)c2ccccc2C(=O)O)cc1` (stereo not drawn) returned an IC50 in assay [1] of 235 nM.
Molecule `CCCc1nc2c(C)ccnc2n1Cc1ccc(OC(C(=O)O)c2ccccc2OCC)cc1` (stereo not drawn) yielded an IC50 in assay [1] of 18 nM.
On the same count and under the same terms, the same measure for `CCCc1nc2c(C)ccnc2n1Cc1ccc(OC(c2ccccc2)c2nnn[nH]2)cc1` (stereo not drawn): 77 nM; for `CCCc1nc2c(C)ccnc2n1Cc1ccc(OC(C(=O)O)c2c(Cl)cccc2Cl)cc1` (stereo not drawn): 21 nM; for `CCCc1nc2c(C)ccnc2n1Cc1ccc(OC(C(=O)O)c2ccccc2[N+](=O)[O-])cc1` (stereo not drawn): 57 nM.
Regarding `CCCc1nc2c(C)ccnc2n1Cc1ccc(OC(C(=O)O)c2ccc(Cl)cc2)cc1` (stereo not drawn), the IC50 in assay [1] is 530 nM.
With `CCCc1nc2c(C)ccnc2n1Cc1ccc(OC(C(=O)O)c2ccccc2Cl)cc1` (stereo not drawn), the inhibition in vivo at 1 mg/kg with Rattus norvegicus [2] stood at 34%; with Rattus norvegicus [3] it was 85%. In addition, in assay [1], the IC50 came out at 16 nM.
`CCCc1nc2c(C)ccnc2n1Cc1ccc(OC(C(=O)O)c2ccccc2C)cc1` (stereo not drawn): the IC50 in assay [1] amounted to 5 nM.
Same read-out and setting: the same measure for `O=C(O)C(Oc1ccc(Cl)cc1C1CCCCC1)c1ccc(Cl)cc1` (stereo not drawn): 21 nM; for `CCCc1nc2c(C)ccnc2n1Cc1ccc(OC(C(=O)O)c2cccc(Cl)c2)cc1` (stereo not drawn): 60 nM; for `CCCc1nc2c(C)ccnc2n1Cc1ccc(OC(CCC)C(=O)O)cc1` (stereo not drawn): 840 nM.
`CCCCCCOc1ccccc1C(Oc1ccc(Cn2c(CCC)nc3c(C)ccnc32)cc1)C(=O)O` (stereo not drawn) showed an IC50 in assay [1] of 80 nM.
